Earlier results on 1 compound are cited in US20150174247A1, “ORAL PHARMACEUTICAL PREPARATION OF ARIPIPRAZOLE” (MARUISHI PHARMACEUTICAL CO., LTD., priority 2012, published 2015).

As to `O=C1CCc2ccc(OCCCCN3CCN(c4cccc(Cl)c4Cl)CC3)cc2N1` [aripiprazole, 7-{4-[4-(2,3-dichlorophenyl)-1-piperazinyl]-butoxy}-3,4-dihydro-2(1H)-quinolinone], the “solubility in acidic range” value (acidic range (pH 4.5 or less)) is on record as “highly soluble”. For the same compound, the “solubility in neutral or higher pH range” value (neutral (pH 5) or higher pH range) is listed as “less soluble”.
